# How the values were obtained:
# Assay in all cases: plasmid pCT74 unwinding, agarose gel
# Format in all cases: biochemical
# Settings in all cases: AOH 4 µg/mL (Fig 6; 1 µg in a 20 µL reaction), 5 min pre-incubation, 37°C, Mg2+; qualitative inhibition; no ATP listed
# Topc = target: T1, Topc (Staphylococcus aureus, UniProt P0A0K8+P20831)
# T1 construct: gene gyrA; Top1 and Top2 combined; each in pET28a, His-tagged, E. coli BL21(DE3)
# Top1 = target: T2, Top1 (Staphylococcus aureus, UniProt P20831)
# T2 construct: gene gyrA; full gene in pET28a, His-tagged, E. coli BL21(DE3), Ni column; tag kept
# T2 sequence (P20831 whole entry): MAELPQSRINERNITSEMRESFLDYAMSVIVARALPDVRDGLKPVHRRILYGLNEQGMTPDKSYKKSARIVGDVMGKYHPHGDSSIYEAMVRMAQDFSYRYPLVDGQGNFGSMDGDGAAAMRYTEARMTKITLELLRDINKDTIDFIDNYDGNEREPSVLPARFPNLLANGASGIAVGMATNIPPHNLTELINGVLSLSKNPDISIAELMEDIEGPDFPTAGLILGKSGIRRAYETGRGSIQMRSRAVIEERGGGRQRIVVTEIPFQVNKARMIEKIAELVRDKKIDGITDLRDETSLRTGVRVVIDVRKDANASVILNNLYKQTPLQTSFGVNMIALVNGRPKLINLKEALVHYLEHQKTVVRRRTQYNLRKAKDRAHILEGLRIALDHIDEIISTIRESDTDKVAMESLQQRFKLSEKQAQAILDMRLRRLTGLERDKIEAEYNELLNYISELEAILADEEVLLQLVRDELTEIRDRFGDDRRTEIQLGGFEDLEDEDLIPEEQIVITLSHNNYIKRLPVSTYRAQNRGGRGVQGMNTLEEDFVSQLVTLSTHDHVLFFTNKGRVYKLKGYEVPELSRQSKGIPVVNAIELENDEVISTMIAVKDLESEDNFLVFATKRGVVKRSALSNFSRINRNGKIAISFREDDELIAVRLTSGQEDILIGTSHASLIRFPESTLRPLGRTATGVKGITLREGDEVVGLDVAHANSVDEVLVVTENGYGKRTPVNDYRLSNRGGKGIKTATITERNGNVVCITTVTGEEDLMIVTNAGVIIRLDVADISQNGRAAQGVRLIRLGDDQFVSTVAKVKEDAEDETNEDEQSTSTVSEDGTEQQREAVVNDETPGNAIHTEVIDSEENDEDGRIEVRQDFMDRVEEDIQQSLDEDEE
# Top4 = target: T3, Top4 (Staphylococcus aureus, UniProt Q99S17)
# T3 construct: gene topB; full gene in pET28a, His-tagged, E. coli BL21(DE3), Ni column; tag kept
# T3 sequence (Q99S17 whole entry): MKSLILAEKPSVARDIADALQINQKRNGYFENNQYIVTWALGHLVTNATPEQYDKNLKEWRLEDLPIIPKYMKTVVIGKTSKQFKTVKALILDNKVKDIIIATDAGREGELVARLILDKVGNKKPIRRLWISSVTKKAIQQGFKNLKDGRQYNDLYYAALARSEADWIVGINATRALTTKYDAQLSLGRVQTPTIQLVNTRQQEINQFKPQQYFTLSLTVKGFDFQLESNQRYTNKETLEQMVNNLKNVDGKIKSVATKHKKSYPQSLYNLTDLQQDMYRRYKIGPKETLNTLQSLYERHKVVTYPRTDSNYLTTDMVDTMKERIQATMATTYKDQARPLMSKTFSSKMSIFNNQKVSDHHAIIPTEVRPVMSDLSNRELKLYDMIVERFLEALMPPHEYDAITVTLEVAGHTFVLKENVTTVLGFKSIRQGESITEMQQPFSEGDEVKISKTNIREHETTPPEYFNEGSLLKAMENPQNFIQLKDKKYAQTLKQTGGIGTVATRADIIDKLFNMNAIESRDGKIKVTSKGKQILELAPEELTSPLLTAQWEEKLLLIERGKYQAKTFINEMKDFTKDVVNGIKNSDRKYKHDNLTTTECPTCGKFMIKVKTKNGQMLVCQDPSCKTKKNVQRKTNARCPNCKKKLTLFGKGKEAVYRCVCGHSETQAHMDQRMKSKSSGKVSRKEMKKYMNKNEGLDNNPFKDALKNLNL
# Top3 = target: T4, Top3 (Staphylococcus aureus, UniProt Q5HGI2)
# T4 construct: gene topA; full gene in pET28a, His-tagged, E. coli BL21(DE3), Ni column; tag kept
# T4 sequence (Q5HGI2 whole entry): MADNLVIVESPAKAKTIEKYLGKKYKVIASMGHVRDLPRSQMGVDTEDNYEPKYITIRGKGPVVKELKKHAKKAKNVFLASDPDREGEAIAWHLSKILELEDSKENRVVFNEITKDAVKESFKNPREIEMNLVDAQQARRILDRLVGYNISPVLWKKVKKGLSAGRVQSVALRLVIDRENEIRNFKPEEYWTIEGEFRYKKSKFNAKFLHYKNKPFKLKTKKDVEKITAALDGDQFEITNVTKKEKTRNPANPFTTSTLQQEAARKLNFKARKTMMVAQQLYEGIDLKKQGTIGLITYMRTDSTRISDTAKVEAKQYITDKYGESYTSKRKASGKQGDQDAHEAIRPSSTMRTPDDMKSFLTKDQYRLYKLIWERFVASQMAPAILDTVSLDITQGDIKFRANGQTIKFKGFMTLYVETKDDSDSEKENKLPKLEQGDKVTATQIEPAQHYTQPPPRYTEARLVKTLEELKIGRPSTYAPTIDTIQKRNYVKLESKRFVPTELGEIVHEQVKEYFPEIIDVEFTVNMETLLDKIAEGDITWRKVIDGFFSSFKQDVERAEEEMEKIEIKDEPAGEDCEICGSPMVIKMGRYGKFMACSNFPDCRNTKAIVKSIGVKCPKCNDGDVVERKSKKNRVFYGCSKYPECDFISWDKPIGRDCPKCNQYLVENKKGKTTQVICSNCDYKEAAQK
# T1 sequence (P20831 whole entry): as the sequence (P20831 whole entry) above
# T1 sequence (P0A0K8 2-644): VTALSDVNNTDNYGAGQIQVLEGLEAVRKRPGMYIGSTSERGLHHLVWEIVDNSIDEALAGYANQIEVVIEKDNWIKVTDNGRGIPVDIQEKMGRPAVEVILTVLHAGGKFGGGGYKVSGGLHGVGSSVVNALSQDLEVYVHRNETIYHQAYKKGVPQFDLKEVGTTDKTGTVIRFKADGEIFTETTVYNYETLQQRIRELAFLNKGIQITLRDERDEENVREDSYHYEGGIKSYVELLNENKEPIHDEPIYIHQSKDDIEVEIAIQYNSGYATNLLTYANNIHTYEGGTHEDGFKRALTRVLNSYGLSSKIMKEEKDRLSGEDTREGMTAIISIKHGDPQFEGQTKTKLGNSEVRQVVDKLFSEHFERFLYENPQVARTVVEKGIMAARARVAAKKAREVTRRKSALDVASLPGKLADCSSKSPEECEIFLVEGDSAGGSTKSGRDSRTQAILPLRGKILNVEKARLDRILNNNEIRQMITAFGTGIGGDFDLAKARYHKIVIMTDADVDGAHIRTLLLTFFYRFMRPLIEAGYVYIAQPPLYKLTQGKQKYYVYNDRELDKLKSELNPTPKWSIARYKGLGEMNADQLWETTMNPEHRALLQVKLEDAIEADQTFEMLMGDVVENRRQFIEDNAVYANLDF
smiles,measurement,setting,value
"Cc1cc(O)cc2oc(=O)c3c(O)cc(O)cc3c12 [compound 1, alternariol]","plasmid pCT74 unwinding, agarose gel",Topc,AOH effectively blocked the unwinding activities of the above four topoisomerases
same,"plasmid pCT74 unwinding, agarose gel",Top1,AOH effectively blocked the unwinding activities of the above four topoisomerases
same,"plasmid pCT74 unwinding, agarose gel",Top4,AOH effectively blocked the unwinding activities of the above four topoisomerases
same,"plasmid pCT74 unwinding, agarose gel",Top3,AOH effectively blocked the unwinding activities of the above four topoisomerases
